Measurements from article PMC11730078, “Virtual screening and evaluation of bioactive peptides from Haliotis discus hannai as potential HMGCR inhibitors for hyperlipidemia treatment” (Frontiers in Nutrition, 2024).

Key:
[1] = Inhibition of cholesterol micelle solubility in vitro; settings: for Cholesterol micelle solubility inhibition rate: 1 mM peptide, micelles of 10 mM sodium taurocholate, 0.4 mM cholesterol, 1 mM oleic acid, pH 7.4, 37°C, 24 h, mean ± SD, three biological replicates, Figure 3C, SD; for Inhibition of cholesterol micellar solubility, comparison and dose trend: peptide 50, 100, 200, 400 μM, Figure 4D
Description: After sequence identification, the peptide sequences were obtained through solid-phase synthesis by GenScript (Nanjing, China). The inhibitory effect of the peptide on cholesterol micelle solubility was measured as previously described with some modifications ([18]). Micellar solutions (1 mL) contained 10 mM sodium taurocholate, 0.4 mM cholesterol, 1 mM oleic acid, 132 mM NaCl, and 15 mM sodium phosphate (pH 7.4). […] After mixing, the samples were ultrasonically emulsified at 37°C for 30 min and incubated on a shaker at 37°C for 24 h. The samples were centrifuged at 8,000 × g for 20 min, and a total cholesterol (T-CHO) assay kit (Jiancheng Bioengineering Institute, Nanjing, China) was used for measurement. The inhibitory effect of the peptide solution on cholesterol micelle solubility was calculated as follows: (1) Cholesterol micelle solubility inhibition rate() =C0−C1/C0×100 where C0 is the initial cholesterol concentration in the micelles, and C1 is the cholesterol concentration in the micelles after sample addition.

high-fat Hep-G2 cells [2] = assay: TG content in FFAs-induced high-fat Hep-G2 cells; type: cell-based; settings: 400 μM peptide with FFAs, 24 h; for TG content in high-fat Hep-G2 cells: mean ± SD, three biological replicates, Figure 4C, SD
Description: (§1) Cells grown to the log phase were digested, gently mixed using a pipette, and collected via centrifugation. The cells were then resuspended in a culture medium and homogenized using a pipette. A hemocytometer was used to count the cells diluted to 2 × 10^5/mL using a complete medium. Then, 250 μL of the cell suspension was pipetted into a 48-well cell culture plate for incubation in a CO2 incubator at 37°C for 14–16 h. After reaching 80–90% confluency, cells were incubated with peptides (50, 100, 200, or 400 μM) and FFAs (10% oleic acid and palmitic acid) for 24 h. Control groups were performed without peptides or FFAs. The model groups were treated with FFAs only, without peptides. Next, the cells were washed with DPBS and lysed for 45 min on ice using 1.5% Triton-X100. TC, TG, HDL-C, and LDL-C levels were determined using Nanjing Jiancheng assay kits.

high-fat Hep-G2 cells [3] = assay: TC content in FFAs-induced high-fat Hep-G2 cells; type: cell-based; settings: 24 h; for TC level in high-fat Hep-G2 cells, dose effect: peptide 50, 100, 200, 400 μM with FFAs
Description: as §1, with “After reaching 80–90% confluency, cells were incubated with peptides (50, 100, 200, or 400 μM) and FFAs (10% oleic acid and palmitic acid) for 24 h.” left out

[4] = system: HMG-CoA reductase (HMGCR); assay: HMG-CoA reductase inhibitory activity (HMG-CoA Reductase Assay Kit, Abcam ab204701); type: biochemical; settings: 1 mM peptide, 0.5 mM Atorvastatin as positive control, OD340, 37°C, mean ± SD, three biological replicates, Figure 3B
Description: The HMG-CoA reductase inhibitory activities were determined using the HMG-CoA Reductase Assay Kit (Abcam, ab204701) as previously described ([19]). Enzyme activity was measured by monitoring the decrease in absorbance at 340 nm and 37°C, following the manufacturer’s instructions. The reaction mix consisted of a mixture of HMG-CoA:NADPH:HMG-CoA reductase buffer assay (12:4:174; 190 μL). In a 96-well flat-bottomed microtiter plate, 5 μL of HMG-CoA reductase, 2 μL of inhibitor, and 3 μL of buffer were mixed. The addition of 190 μL of reaction mix marked the initiation of the enzyme reaction. OD340 was measured for 10 min at 2-min intervals at 37°C.
HMGCR inhibition rate (%)=−ΔA340nm/ΔTEnzyme−−ΔA340nm/ΔTEnzyme+Inhubitor/−ΔA340nm/ΔTEnzyme×100.

Row | Substance | Cholesterol micelle solubility inhibition rate [1] | Inhibition of cholesterol micellar solubility, comparison and dose trend [1] | Decrease of TG content compared with model group (high-fat Hep-G2 cells [2]) | TG content in high-fat Hep-G2 cells (high-fat Hep-G2 cells [2]) [mmol/gprot] | TC level in high-fat Hep-G2 cells, dose effect (high-fat Hep-G2 cells [3]; Figure 4B) | HMGCR inhibition rate [4] | TC level in high-fat Hep-G2 cells compared with model group (high-fat Hep-G2 cells [3]; 400 μM peptide with FFAs, Figure 4B) | TC accumulation in high-fat Hep-G2 cells compared with model group (high-fat Hep-G2 cells [3]; peptide 1 mM with FFAs, Figure 3A)
1 | APDMAFPR | 35.87% ± 2.56 | weakest inhibitory effect | 34.86% ± 0.08 | 0.31 ± 0.04 | not significant | 59.55% ± 0.46 |  | 
2 | DYPRPW | 37.29% ± 1.45 | superior inhibition rate |  |  | the higher the concentration, the lower the TC level | 51.81% ± 0.70 | significantly lower than that in the model group | 
3 | LPAYPMP | 41.55% ± 5.48 | showed inhibition of cholesterol micellar solubility |  |  | not significant | 54.65% ± 0.36 |  | 
4 | QDAVMPNPF | 47.94% ± 0.58 | showed inhibition of cholesterol micellar solubility | 31.31% ± 0.10 | 0.33 ± 0.05 | not significant |  |  | 
5 | SPADIGFH [abalone viscera peptide, top 20 after virtual screening, synthesized by GenScript] | 45.23% ± 3.68 |  |  |  |  | 53.89% ± 3.89 |  | 
6 | WFKTM [abalone viscera peptide, top 20 after virtual screening, synthesized by GenScript] |  |  |  |  |  |  |  | all peptides, except for WFKTM, alleviated TC accumulation
